The test system of one data set is C6-Luc glioblastoma. Put plainly: Intracranial C6-Luc orthotopic glioblastoma model, intranasal inoculation. The data set is classed as in vivo, Sprague-Dawley rats. The procedure:
The therapeutic efficacy of intranasally-delivered PTX-loaded NPs was evaluated in an intracranial C6-Luc orthotropic model. […] Therefore, as a PTX solvent, DMSO was used. In addition, to minimize DMSO-associated cytotoxicity, the PTX-loaded NPs were dissolved in PBS. The intranasal inoculation started at day 4 after tumor administration and was performed daily for a total of three times.
(§1) Specifically, intracranial tumor models were established from 6-week-old male Sprague-Dawley rats. The anesthetized rats were placed in a stereotaxic frame, and the skull was gently exposed to spot the bregma. The monitoring points for the bregma were as follows: anteroposterior, 0 mm; lateral, 2.0 mm; and ventral, 4.0 mm. A fine burr hole (0.7 mm) was created in the skull without disrupting the dura using a microsurgical drill. A total of 2×10^5/10 μl C6-Fluc cells were injected using a 26-gauge Hamilton microsyringe (80330; Reno, Nev., USA) at a speed of 0.9 μl/min. To generate a human glioblastoma model, 1×10^5/[…] of U87MG-Fluc cells were inoculated into immunodeficient nude mice by the same method. After the operation, the skin was sutured.
In vivo and ex vivo bioluminescence imaging was performed. For in vivo bioluminescence imaging, 150 mg/kg of D-luciferin (Caliper, Hopkinton, Mass.) was intraperitoneally injected into anesthetized animals. The live images were taken 15 minutes after the injection of D-luciferin by the IVIS Lumina caliper series (Life Technologies, Carlsbad, Calif.). […]
For Nissl staining, paraffin-embedded brain sections were deparaffinized, rehydrated, and then subjected to treatment with a 0.1% crystal violet solution according to a standard protocol. […] The cancer volume was calculated using ImageJ software as described above. […]
To investigate apoptosis in the de-paraffinized and hydrated brain sections, the TUNEL assay was performed using an in situ apoptosis detection kit (Millipore) according to the manufacturer's instruction. […] Fluorescent signals of the cells were measured by taking images using a fluorescence microscope (Leica, Wetzlar, Germany). […]

A short description of data set [1]: In vivo toxicity by body weight of inoculated animals. More on the design: species or system rat. As to conditions: glioblastoma rats, 2 mg/kg intranasal. As for the experimental part:
Further, the in vivo toxicity of NPs was evaluated by measuring a body weight of the inoculated animal. The change in body weight is reliable indicator for assessing the in vivo toxicity of a delivered drug. […] However, an insignificant change in body weight was shown in all animals due to cancer mass over time after tumor implantation (FIG. 8).

Another data set has as its system rat glioma cells. Put plainly: Annexin V / 7-AAD apoptosis flow cytometry. The data set is classed as cell-based. The note with it: 24 hours. The procedure:
(§2) The rat (C6) and human (U87MG) glioblastoma cells used in this experiment were obtained from ATCC (Rockville, Md.), and cultured in Dulbecco's Modified Eagle's Medium (DMEM) containing 10% fetal bovine serum, penicillin (100 IU/mL) and streptomycin (100 μg/mL) at 37° C. in a 5% CO2 incubator. For all in vitro experiments, the cells were seeded in a 12-well plate at a density of 1×10^5 cells/well.
(In flow cytometry, cells or beads pass a laser one at a time.)

For the next data set, the system named is C-6 glioma cells. Kind of data set: Viability/apoptosis (calcein-AM / EthD-1) analysis. The data set is classed as cell-based, rat. As to conditions: 24 hours. The procedure:
as §2
An image was captured using a fluorescence microscope (Leica, Wetzlar, Germany). A percentage of live or dead cells was calculated using ImageJ software, developed by the National Institute of Health (NIH).

The subject of a further data set is C6-glioma cells. Kind of data set: TUNEL assay and Hoechst staining in cultured cells. The format is cell-based, rat. The procedure: as §2
In the next data set the test system is U87MG glioma cells. Kind of data set: Cell cycle (DNA content, PI) analysis. The format is cell-based, human. As to conditions: 24 hours. The procedure: as §2
A further data set concerns U87MG-Fluc glioblastoma. Kind of data set: Human glioblastoma (U87MG-Fluc) model, intranasal inoculation. The format is in vivo, immunodeficient nude mice. The note with it: 1 mg/kg intranasal, three inoculations. As for the experimental part: as §1, with “A total of 2×10^5/10 μl C6-Fluc cells were injected using a 26-gauge Hamilton microsyringe (80330;” left out, “sutured. […] In vivo and ex vivo bioluminescence imaging was performed. For in vivo bioluminescence imaging, 150 mg/kg of D-luciferin (Caliper, Hopkinton, Mass.) was intraperitoneally injected into anesthetized animals. The live images were taken 15 minutes after the injection of D-luciferin by the IVIS Lumina caliper series (Life Technologies, Carlsbad, Calif.). To evaluate ex vivo bioluminescence, the excised brain tissue was incubated with a D-luciferin substrate for 15 minutes, followed by imaging as described above. […] The cancer volume was calculated using ImageJ software as described above.” for “sutured.”

In another data set the test system is C6 glioblastoma cells. Kind of data set: Cell cycle (DNA content, PI) analysis. The note with it: 10 μM PTX equivalent, 24 hours. The data set is classed as cell-based, rat. The procedure:
as §2
And then, the cells were collected, and fixed with 70% ethanol at 4° C. for 2 hours. After incubation, the cells were washed, and additionally incubated with a DNase-free RNase (1 mg/mL) and 0.02 mg/mL of propidium iodide (PI). A cell cycle profile was studied using a flow cytometer (BD FACS Calibur™), and analyzed using FlowJo software.

The structures appear in SMILES notation.

`CC(=O)O[C@H]1C(=O)[C@@]2(C)[C@H]([C@H](OC(=O)c3ccccc3)[C@]3(O)C[C@H](OC(=O)[C@H](O)[C@@H](NC(=O)c4ccccc4)c4ccccc4)C(C)=C1C3(C)C)[C@]1(OC(C)=O)CO[C@@H]1C[C@@H]2O` [PTX, Paclitaxel]: the “tumor volume (Nissl staining)” value in the data set on C6-Luc glioblastoma (2 mg/kg PTX equivalent intranasal, PBS 98.4) came out at 90.1 mm^3. Also, the “tumor progression (in vivo bioluminescence imaging)” value with C6-Luc glioblastoma (2 mg/kg PTX intranasal, three daily inoculations from day 4, up to day 14) is “relatively identical to the saline-treated group”. The “increase in in vivo bioluminescence signals” value in the data set with C6-Luc glioblastoma (day 14, 2 mg/kg intranasal) is recorded as 1.0×10^8 fold. Also, the “change in body weight” value in data set [1] is listed as “significant effect on body weight loss”. Besides, the “annexin V-positive cells” value was determined as 30.1% in the data set with rat glioma cells (1 μM), 33.1% in the data set with rat glioma cells (10 μM) and 34.2% in the data set with rat glioma cells (50 μM). The “number of annexin V and 7-AAD-positive cells” value in the data set with rat glioma cells (various concentrations) is “concentration-dependently increased”. Further, the dead cells was 8.3% in the data set with C-6 glioma cells (0.01 μM); 23.1% with C-6 glioma cells (0.1 μM); 31.8% with C-6 glioma cells (1 μM); 49.2% in the data set with C-6 glioma cells (10 μM); 63.8% in the data set on C-6 glioma cells (50 μM). In addition, the “nuclear morphology (Hoechst staining)” value with C6-glioma cells (compared with non-treated glioma cells) is “severe formation of DNA fragmentation or segmentation or condensed nuclei”. Further, the “number of apoptotic cells stained with TUNEL” value with C6-glioma cells (equivalent amounts of PTX) is “concentration-dependently increased”. The “number of TUNEL-positive cells” value is listed as approximately 236.1 with C6-glioma cells (fifth tested micromolar concentration (50 μM)); “approximately 77” in the data set on C6-glioma cells (first tested micromolar concentration (0.01 μM)); approximately 198.6 in the data set on C6-glioma cells (fourth tested micromolar concentration (10 μM)); approximately 97.5 in the data set on C6-glioma cells (second tested micromolar concentration (0.1 μM)); approximately 136.6 in the data set with C6-glioma cells (third tested micromolar concentration (1 μM)). Further, the “arrested population at the G2-M phase compared with C6 cells” value in the data set on U87MG glioma cells is recorded as “slightly higher arrested population at the G2-M phase”. Besides, the “tumor growth / therapeutic effect compared with saline (BLI)” value in the data set on U87MG-Fluc glioblastoma is “did not show any therapeutic effect”. In addition, the “cells at the G1 phase” value in the data set with C6 glioblastoma cells amounted to 9%. The “cells at the G2-M phase” value with C6 glioblastoma cells (non-treated 29%) is listed as 83%.
